Reference: patent EP0101294B1, “Composition for protecting and healing gastro-duodenal mucosa and the liver of mammals” (THE REGENTS OF THE UNIVERSITY OF CALIFORNIA, priority 1982, dated 1984)
Marks after values point to notes of the source that are not given here.

How the values were obtained:
Assay type in all cases: in vivo, Spraque-Dawley rats
gastric mucosa [1] = assay: Study 1: arachidonic acid mucosal protection 3 hours after ethanol, computerized analysis of hemorrhagic area; settings: percent of total glandular mucosal area
Method: (§1) The animals used in the examples were Spraque-Dawley rats (225 to 250 grams bodyweight). Twenty-four hours prior to the experimentation the animals were fasted in wire-bottomed cages to prevent coprophagy.
Animals were given by gavage 1 ml of either saline, or 5 mM PL solution in saline, or 1 ml of the PL-saline solution containing arachidonic acid in 30, 60 and 120 mM concentrations respectively. One-half hour or 1 hour later, 2 ml of absolute ethanol were instilled into the stomach by gavage. Three hours later the animals were sacrificed and their stomachs removed.
A camera with 100 mm macro lens was used to photograph the mucosal surface of the stomach. The same type of film and identical conditions of specimen distance from the lens, light intensity and film development were used throughout the study. Color slides were evaluated by a computerized image analysis. Each slide was converted to a black-and-white video image consisting of 65,000 points. White represented normal gastric mucosa, while gray or black represented hemorrhagic changes. […] Absolute white was given a 255 value while absolute black was given a value of 0. Boundaries delineating the glandular mucosa were drawn on the digital video image with a sonic pen. All spatial and contrast information was stored on a magnetic disk. Each glandular mucosal area was classified interactively by slicing the spectrum of mucosal values into 2 or more subgroups and by displaying the resultant simplified digital image for verification with the more complex analog photographic input. Once a classification scheme was established, a spatial rendition of the picture's point was printed and plotted to scale on paper. A summary of the computer results was also printed and included boundary values for each gray-level slice and the absolute and relative areas of each class. The areas of hemorrhagic changes were expressed as the percentage of the entire gastric glandular mucosal area.

gastric mucosa [2] = assay: Study 2: arachidonic acid mucosal protection 15 hours after ethanol, computerized analysis of hemorrhagic area; settings: 1 ml 120 mM AA (37 mg) in PL intragastric 1 hour before 2 ml ethanol; evaluated 15 hours after ethanol; percent of total glandular mucosal area
Method: as §1
One ml of 120 mM arachidonic acid solution (37 mg arachidonic acid) or 5 mM PI solution was instilled into the stomach 1 hour prior to the intragastric administration of 2 ml ethanol. The animals were killed 15 hours after ethanol administration and their stomachs were examined.
A camera with 100 mm macro lens was used to photograph the mucosal surface of the stomach. The same type of film and identical conditions of specimen distance from the lens, light intensity and film development were used throughout the study. Color slides were evaluated by a computerized image analysis. Each slide was converted to a black-and-white video image consisting of 65,000 points. White represented normal gastric mucosa, while gray or black represented hemorrhagic changes. […] Absolute white was given a 255 value while absolute black was given a value of 0. Boundaries delineating the glandular mucosa were drawn on the digital video image with a sonic pen. All spatial and contrast information was stored on a magnetic disk. […] The areas of hemorrhagic changes were expressed as the percentage of the entire gastric glandular mucosal area.

gastric mucosa [3] = assay: Study 3: intragastric versus intrajejunal arachidonic acid, pylorus ligated, ethanol-induced gastric mucosal injury; settings: 1 hour before 2 ml ethanol, evaluated 2 hours after ethanol
Method: as §1
The next series of experiments was designed to compare the effect of intragastric to intrajejunal pretreatment with arachidonic acid on ethanol-induced gastric mucosal injury. The animals were anesthetized with nembutal (50 mg nembutal per kg body weight intraperitoneally), their abdomens were opened and either 1 ml of 120 mM arachidonic acid or 5 mM PL was installed intragastrically or 1 ml of 120 mM arachidonic acid intrajejunally with a polyethylene catheter introduced through a small duodenal incision. The pylorus was ligated immediately after solution instillation. One hour later the gastric contents were removed and 2 ml of ethanol were instilled through the catheter. The stomach was examined 2 hours later.
A camera with 100 mm macro lens was used to photograph the mucosal surface of the stomach. The same type of film and identical conditions of specimen distance from the lens, light intensity and film development were used throughout the study. Color slides were evaluated by a computerized image analysis. […] The areas of hemorrhagic changes were expressed as the percentage of the entire gastric glandular mucosal area.

gastric mucosa [4] = assay: Histological studies of gastric mucosa (light microscopy)
Method: Mucosal specimens 5 mm in width were cut from the forestomach to the pylorus. The specimens were obtained (a) 60 minutes after intragastric administration of 1 ml of solution containing either saline, PL or 120 mM arachidonic acid or (b) 3 hours after intragastric instillation of 2 ml of ethanol in animals which had received 1 ml of solution containing either saline or PL or 120 mM arachidonic acid 1 hour before ethanol. Specimens were fixed in buffered 10% formalin and stained. Coded specimens were examined "blindly" by light microscopy. In the histological evaluation special attention was paid to the continuity of the surface epithelium layer, presence or absence of hemorrhagic erosions, edema of the submucosa and infiltration with polymorphonuclear neutrophils.

gastric mucosa [5] = assay: Scanning electron microscopy of gastric mucosa after ethanol; settings: 3 hours after ethanol, arachidonic acid pretreated rats
Source text: Gastric mucosal specmens, fixed in 3.5% buffered glutaraldehyde were processed routinely for scanning electronmicroscopy and evaluated in a JOEL-35 scanning electronmicroscope operated at 20 kV.

PGE2 = PGE2 measurement in gastric contents (radioimmunoassay, bioassay)
Method: PGE2 was measured by direct radioimmunoassay using antisera generated in rabbits by immunization of PGE2 linked to bovine thyroglobulin. For additional confirmation of PGE2 measurements, samples were also subjected to bioassay. After addition of approximately 5000 CPM of ^3H-labeled PGE2 for recovery calculations, samples were adjusted to pH 4.3 with 0.5 M phosphate buffer and extracted twice with ethyl acetate. The organic layer was subjected to thin layer chromatography (benzene:dioxane:acetic acid, 90:60:3), and the PGE2 fraction was extracted with methanol, dried and reconstituted in 0.9% NaCl for assay. A bioassay cascade (according to Vane) was used to assay simultaneously the samples in 2 aliquot sizes and on 3 rat stomach strips. The concentration of PGE2 in the gastric contents were measured in 2 groups of rats 30 or 60 minutes following intragastric installation of 1 ml of 120 mM arachidonic acid or 1 ml PL in order to determine the extent of arachidonic acid conversion to PGE2 by the gastric mucosa. The spontaneous release of PGE2 into the gastric lumen was assessed in animals receiving PL pretreatment only. In addition, PGE2 concentration in the original 120 mM arachidonic acid solution was measured before intragastric instillation.

gastric mucosa [6] = assay: Study 5: arachidonic acid mucosal protection against taurocholic acid; settings: 1 ml 120 mM AA in PL; 3 ml 80 mM TCA in 0.1 n HCl twice; 3 hours after second TCA dose
Method: as §1
Rats were given intragastric treatment by peroral tube with 1 ml of PL solution or 1 ml of PL solution containing 120 mM arachidonic acid (AA). The rats then received, intragastrically, 3 mls of a 80 mM solution of taurocholic acid (TCA) dissolved in 0.1 n in HCI, adminstered twice: one or two hours after PL or AA pretreatment. Animals were sacrificed 3 hours after second TCA administration.
Gastric mucosa was assessed macroscopically and histologically for damage in a similar manner as in studies with ethanol. […] These lesions corresponding histologically to necrotic lesions were similar to those seen after ethanol.

gastric mucosa [7] = assay: Study 6: arachidonic and linoleic acid mucosal protection against acetylsalicylic acid; settings: for Macroscopic mucosal changes (lesion index, number of lesions x severity): 1 ml 120 mM AA or 240 mM LLC in PL 1 hour before 200 mg/kg aspirin intragastrically, 4 hours after acetyl salicylic acid; for Histologic evaluation: deep necrotic lesions / Mucosa by scanning electromicroscopy: 4 hours after aspirin, 120 mM AA or 240 mM LLC pretreatment
Method: as §1
Rats were given intragastric treatment by peroral tube with 1 ml of PL solution, 1 ml of PL solution containing 120 mM arachidonic acid (AA), or 1 ml of PL solution containing 240 mM linoleic acid (LLC). One hour after such treatment a suspension of 200 mg/kg bodyweight of aspirin in 0.1 n HCI containing 1% methyl cellulose was administered intragastrically in 1 ml volume. The animals were sacrified 4 hours after acetyl salicylic acid administration.
• 1) Macroscopic quantitation of mucosal changes based on scoring system estimating presence or absence of hemorrhagic lesions, their number and severity graded on arbitrary scale 1 to 4. Lesion index, expressed as an average score (number of lesionsxseverity) was estimated per each group of animals. • 2) Mucosal histology • 3) Scanning electron microscopy

liver = assay: Study 7: liver protection against ethanol, electron microscopy of hepatocytes; settings: 1 ml 120 mM AA (37 mg) in PL by gavage 1 hour before 2.5 ml 100% ethanol; sacrificed 24 hours later
Method: 40 rats were given, by gavage, either 1 ml of 5 mM PL solution (as a control) or a 1 ml of 120 mM arachidonic acid in the 5 mM PL solution. One hour later the rats were given 2.5 ml of 100% ethanol and the animals sacrificed 24 hours later.
The liver was then removed and specimens fixed for 2 hours in 3.5% purified glutaraldehyde (buffered in 0.1 M phosphate of 7.4). The liver specimens were washed with buffer and postfixed in 1% osmium tetroxide at 0°C for 1 hour. After dehydration with graded ethanol the tissue was embedded in epoxy resin. Silver gray thin sections of the specimen were double stained with 2% uranyl acetate followed by lead citrate and examined with an RCA electron microscope.

gastric mucosa [8] = assay: Study 4: linoleic acid mucosal protection against ethanol; settings: 3 hours after ethanol
Method: Twenty-four hours prior to the experimentation the animals were fasted in wire-bottomed cages to prevent coprophagy.
The rats were given intragastric treatment by peroral tube 1 ml of PL solution; 1 ml of the PL solution containing 120 mM linoleic acid (LLC) or 240 mM LLC; or 1 ml of 240 mM oleic acid solubilized in 5 mM PL. […] Macroscopic and histologic mucosal changes were evaluated as in the studies with arachidonic acid.

[9] = histology 3 hours after 2 ml absolute ethanol, pretreated with 1 ml 120 mM AA+PL 1 hour before
[10] = 1 ml 240 mM in 5 mM PL intragastric pretreatment

SMILES: CCCCC/C=C\C/C=C\C/C=C\C/C=C\CCCC(=O)O [AA, arachidonic acid]
- Hemorrhagic area*(%) (gastric mucosa [1]; 1 ml 30 mM AA in 5 mM PL by gavage 1 hour before 2 ml ethanol, stomach evaluated 3 hours after ethanol): 15.4%
- Hemorrhagic area*(%) (gastric mucosa [1]; 1 ml 60 mM AA in 5 mM PL by gavage 1 hour before 2 ml ethanol, evaluated 3 hours after ethanol): 3.0%
- Hemorrhagic area*(%) (gastric mucosa [1]; 1 ml 120 mM AA in 5 mM PL by gavage 1 hour before 2 ml ethanol, evaluated 3 hours after ethanol): 0.6%
- Hemorrhagic area*(%) (gastric mucosa [1]; Group E: 1 ml 120 mM AA in 5 mM PL by gavage 30 minutes before 2 ml ethanol, evaluated 3 hours after ethanol): 0.8%
- Hemorrhagic area*(%) (gastric mucosa [2]): 0.6%
- Hemorrhagic area*(%) (gastric mucosa [3]; 1 ml 120 mM AA intragastrically): 5.3%
- Hemorrhagic area*(%) (gastric mucosa [3]; 1 ml 120 mM AA intrajejunally): 28.1%
- Histological changes of gastric mucosa after the acid alone (gastric mucosa [4]; 60 minutes after intragastric 1 ml 120 mM arachidonic acid, no ethanol): did not change the appearance of the gastric mucosa
- Edema of submucosa accumulation of polymorphonuclears (gastric mucosa [4]; [9]): Present
- Hemorrhagic erosions (gastric mucosa [4]; [9]): Absent
- The surface epithelium layer (gastric mucosa [4]; [9]): Present, continuous (minor focal defects seen occasionally)
- Mucosal surface by scanning electronmicroscopy (gastric mucosa [5]): nondisrupted and normal appearance
- values of PGE2 in the gastric content higher than in animals that received PL only (PGE2; 30 and 60 minutes after intragastric instillation, relative to PL group): 5,000-13,000
- PGE2 concentration (ng/ml) (PGE2; gastric contents 30 min after intragastric instillation of 1 ml 120 mM AA): 7360.0* ng/ml
- PGE2 concentration (ng/ml) (PGE2; gastric contents 60 min after intragastric instillation of 1 ml 120 mM AA): 4100.0* ng/ml
- mucosal lesions, macroscopically and histologically (gastric mucosa [6]): not detectable
- Macroscopic mucosal changes (lesion index, number of lesions x severity) (gastric mucosa [7]): 2±0.3
- Histologic evaluation: deep necrotic lesions (gastric mucosa [7]): deep necrotic lesions did not occur
- Mucosa by scanning electromicroscopy (gastric mucosa [7]): nearly normal mucosa
- ultrastructural changes in the hepatocytes (liver): most of the alcohol induced changes were virtually prevented

SMILES: CCCCC/C=C\C/C=C\CCCCCCCC(=O)O [LLC, linoleic acid]
- macroscopic hemorrhagic lesions, % of glandular mucosal area (gastric mucosa [8]; 1 ml 120 mM in 5 mM PL intragastric pretreatment): 6.5±1%
- macroscopic hemorrhagic lesions, % of glandular mucosal area (gastric mucosa [8]; [10]): 1.3±0.5%
- Mucosal histology: deep necrotic lesions (gastric mucosa [8]): no deep necrotic lesions were present
- edema in the forestomach (gastric mucosa [8]; macroscopic, group pretreated with linoleic acid): marked edema in the forestomach
- Macroscopic mucosal changes (lesion index, number of lesions x severity) (gastric mucosa [7]): 8±1
- Histologic evaluation: deep necrotic lesions (gastric mucosa [7]): deep necrotic lesions did not occur
- Mucosa by scanning electromicroscopy (gastric mucosa [7]): nearly normal mucosa

SMILES: CCCCCCCC/C=C\CCCCCCCC(=O)O [oleic acid, reference compound]
- macroscopic hemorrhagic lesions, % of glandular mucosal area (gastric mucosa [8]; [10]): 29.1±3%
- Mucosal histology: deep necrotic lesions (gastric mucosa [8]): deep hemorrhagic necrotic lesions penetrating into muscularis mucosa were present
